Measurements as given in the Deep4Chem optical property database.
Each block holds one molecule with its values, some of them ahead of it.

Experiment: photoluminescence quantum yield (fraction); solvent given as SMILES
[1] = in O=P(c1ccccc1)(c1ccccc1)c1ccc2oc3ccc(P(=O)(c4ccccc4)c4ccccc4)cc3c2c1

Structure (SMILES): CC1(C)c2ccccc2N(c2ccc(-c3ncccn3)cc2)c2ccccc21
photoluminescence quantum yield [1]: 0.83

photoluminescence quantum yield (in ClCCl): 0.14
Structure (SMILES): CC(C)(C)c1ccc(C#Cc2cc3ccc4cc(C#Cc5ccc(C(C)(C)C)cc5)cc5ccc(c2)c3c45)cc1

photoluminescence quantum yield (in CC#N): 0.009 | photoluminescence quantum yield (in CO): 0.01 | photoluminescence quantum yield (in O): 0.012
Structure (SMILES): CNCCCN1c2ccccc2CCc2ccccc21

photoluminescence quantum yield (in ClCCl): 0.49
Structure (SMILES): O=c1oc2ccccc2cc1-c1ccc(-c2ccc(-c3cc4ccccc4oc3=O)cc2)cc1

photoluminescence quantum yield (in CCO): 0.32
Structure (SMILES): CCN(CC)c1ccc(C=Cc2nc3nc4ccccc4nc3s2)c(OC)c1

photoluminescence quantum yield (in CS(C)=O): 0.64
Structure (SMILES): Fc1ccccc1-c1nc2sc3ccccc3c2s1

photoluminescence quantum yield (in ClC(Cl)Cl): 0.5
Structure (SMILES): C(#Cc1ccc(C#Cc2ccccc2)cc1)c1ccccc1

photoluminescence quantum yield (in CC#N): 0.24
Structure (SMILES): CC1=[N+]2C(=C(C3=CC4OCCOCCOCCOCCOC4C=C3)c3c4ccccc4c(/C=C/c4ccc(N(C)C)cc4)n3[B-]2(F)F)c2ccccc21 (centres undefined)

photoluminescence quantum yield (in CO): 0.93 | photoluminescence quantum yield (in CS(C)=O): 0.98 | photoluminescence quantum yield (in ClC(Cl)Cl): 1 | photoluminescence quantum yield (in c1ccccc1): 0.98
Structure (SMILES): CCC1=C(C)C(=O)n2c1cc1c(C)c(CC)c(C)n1c2=O

photoluminescence quantum yield (in C1CCOC1): 0.003 | photoluminescence quantum yield (in CC#N): 0.003 | photoluminescence quantum yield (in CCO): 0.048 | photoluminescence quantum yield (in CS(C)=O): 0.01
Structure (SMILES): CCOC(=O)c1ccccc1-c1c2ccc(=O)cc-2oc2cc(OC(=O)[C@H](CO[Si](C)(C)C(C)(C)C)NC(=O)OC(C)(C)C)ccc12

photoluminescence quantum yield (in CC#N): 0.002
Structure (SMILES): COc1ccc(-c2nc3c([nH]2)=C2C=C(Cl)S[C@@]2(C)[C@]2(C)SC(Cl)=CC=32)cc1

photoluminescence quantum yield (in c1cc(-c2cccc(-n3c4ccccc4c4ccccc43)c2)cc(-n2c3ccccc3c3ccccc32)c1): 0.82
Structure (SMILES): c1ccc(-c2nc(-c3ccccc3)nc(-c3ccc(-c4ccc5c(c4)C4(c6ccccc6-c6ccccc64)c4ccccc4N5c4ccccc4)cc3)n2)cc1

photoluminescence quantum yield (in ClCCl): 0.22
Structure (SMILES): O=C1c2ccccc2-c2nc3c(F)c(F)c(F)c(F)c3n21

photoluminescence quantum yield (in CCCCCC): 0.36 | photoluminescence quantum yield (in CS(C)=O): 0.2
Structure (SMILES): C1CCN2CCCn3c2c(c2c3=NCCN=2)C1

photoluminescence quantum yield (in C1CCOC1): 0.55
Structure (SMILES): C(=C\c1ccccn1)/c1ccc(N(c2ccc(/C=C/c3ccccn3)cc2)c2ccc(-c3nc4ccccc4nc3-c3ccc(N(c4ccc(/C=C/c5ccccn5)cc4)c4ccc(/C=C/c5ccccn5)cc4)cc3)cc2)cc1

Structure (SMILES): COc1ccc(-c2nnc(-c3cc(-c4nnc(-c5ccc(OC)cc5)o4)c(-n4c5ccccc5c5ccccc54)cc3-n3c4ccccc4c4ccccc43)o2)cc1
photoluminescence quantum yield (in Cc1ccccc1): 0.133 | photoluminescence quantum yield (in O=P(c1ccccc1)(c1ccccc1)c1ccccc1Oc1ccccc1P(=O)(c1ccccc1)c1ccccc1): 0.354

photoluminescence quantum yield (in ClC(Cl)Cl): 0.49
Structure (SMILES): COc1ccc(-c2cc(-c3ccc(N(C)C)cc3)nc(-c3ccccc3)n2)cc1

photoluminescence quantum yield (in CCCCCC): 0.94
Structure (SMILES): CC1=[N+]2C(=C(c3ccccc3)c3c4c5ccccc5c5ccccc5c4c(C)n3[B-]2(F)F)c2c1c1ccccc1c1ccccc21

photoluminescence quantum yield (in ClCCl): 0.69
Structure (SMILES): Brc1ccc(N(c2ccc(/C=C/c3ccncn3)cc2)c2ccc(/C=C/c3ccncn3)cc2)cc1

photoluminescence quantum yield (in ClC(Cl)Cl): 0.56
Structure (SMILES): Clc1ccc(-c2nc(-c3ccccc3)c(N(c3ccccc3)c3ccccc3)s2)cc1

Structure (SMILES): c1ccc(-c2nc(-c3ccccc3)nc(-c3cc(-n4c5ccccc5c5ncccc54)cc(-n4c5ccccc5c5ncccc54)c3)n2)cc1
photoluminescence quantum yield [1]: 0.21

Structure (SMILES): F[B-]1(F)n2cccc2C(c2ccccc2)=C2C=CC=[N+]21
photoluminescence quantum yield (in Cc1ccccc1): 0.053 | photoluminescence quantum yield (in ClCCl): 0.74

Structure (SMILES): C#CCN1C(=O)/C(=C/c2cc(OC(C)C)ccc2OC(C)C)N=C1C
photoluminescence quantum yield (in C1COCCO1): 0.108 | photoluminescence quantum yield (in CC#N): 0.134 | photoluminescence quantum yield (in CC(C)=O): 0.12 | photoluminescence quantum yield (in CCCCCC): 0.089 | photoluminescence quantum yield (in CCCCO): 0.029 | photoluminescence quantum yield (in CCCO): 0.08 | photoluminescence quantum yield (in CCO): 0.025 | photoluminescence quantum yield (in CCOC(C)=O): 0.101 | photoluminescence quantum yield (in CN(C)C=O): 0.171 | photoluminescence quantum yield (in CO): 0.019 | photoluminescence quantum yield (in CS(C)=O): 0.182

photoluminescence quantum yield (in CCO): 0.21 | photoluminescence quantum yield (in ClC(Cl)Cl): 0.51 | photoluminescence quantum yield (in O): 0.01
Structure (SMILES): CCN(CC)c1ccc2c(c1)oc(=O)c1c(-c3ccccc3C(=O)O)c3ccc(=[N+](CC)CC)cc-3oc12

Structure (SMILES): CCCCCCCCN1c2ccc(C#Cc3ccc(OC)cc3)cc2Sc2cc(C=O)ccc21
photoluminescence quantum yield (in C1CCOC1): 0.54 | photoluminescence quantum yield (in CC#N): 0.34 | photoluminescence quantum yield (in CCCCCC): 0.59 | photoluminescence quantum yield (in CO): 0.07 | photoluminescence quantum yield (in CS(C)=O): 0.91 | photoluminescence quantum yield (in Cc1ccccc1): 0.49 | photoluminescence quantum yield (in ClC(Cl)Cl): 0.58

photoluminescence quantum yield (in ClCCl): 0.11
Structure (SMILES): F[B-]1(F)Oc2ccccc2-c2c3c(c4c([n+]21)CCc1ccccc1-4)CCc1ccccc1-3

photoluminescence quantum yield (in C1CCCCC1): 0.61
Structure (SMILES): B1C=Cc2ccc3ccccc3c2N1

photoluminescence quantum yield (in C1CCOC1): 0.021
Structure (SMILES): CC(C)(C)c1ccc(C2=C(c3ccc(N4c5ccccc5C(C)(C)c5ccccc54)cc3)S(=O)(=O)c3c2sc(-c2ccc(N4c5ccccc5C(C)(C)c5ccccc54)cc2)c3-c2ccc(C(C)(C)C)cc2)cc1

photoluminescence quantum yield (in O): 0.78
Structure (SMILES): CCCCn1c(-c2ccc(-c3ccc(-c4ccc(-c5n(CCCC)c6cc(C)ccc6[n+]5CCCC)cc4)cc3)cc2)[n+](CCCC)c2ccc(C)cc21

Structure (SMILES): CN(C)c1ccc(-c2nc(-c3ccc(-n4c5ccccc5c5ccccc54)cc3)cc(-c3ccc(-n4c5ccccc5c5ccccc54)cc3)n2)cc1
photoluminescence quantum yield (in C1CCOC1): 0.035 | photoluminescence quantum yield (in CN(C)C=O): 0.011 | photoluminescence quantum yield (in Cc1ccccc1): 0.07 | photoluminescence quantum yield (in ClC(Cl)Cl): 0.07

photoluminescence quantum yield (in CO): 0.87
Structure (SMILES): CCN(CC)c1ccc(C2=C3C(C)=CC(/C=C/c4ccc(OCC(=O)OC)cc4)=[N+]3[B-](F)(F)n3c(C)cc(C)c32)cc1

photoluminescence quantum yield (in ClC(Cl)Cl): 0.275
Structure (SMILES): Cc1ccc(C2=Cc3c4ccccc4c4ccccc4[n+]3[B-](F)(F)O2)cc1

photoluminescence quantum yield (in O): 0.34
Structure (SMILES): Fc1ccc2cc3cccc[n+]3cc2c1

photoluminescence quantum yield (in C1CCOC1): 0 | photoluminescence quantum yield (in C1COCCO1): 0.072 | photoluminescence quantum yield (in CC#N): 0.28 | photoluminescence quantum yield (in CCCO): 0.37 | photoluminescence quantum yield (in CCO): 0.15 | photoluminescence quantum yield (in CN(C)C=O): 0.36 | photoluminescence quantum yield (in CO): 0.24 | photoluminescence quantum yield (in CS(C)=O): 0.47 | photoluminescence quantum yield (in ClC(Cl)Cl): 0.053 | photoluminescence quantum yield (in ClCCl): 0.037
Structure (SMILES): COc1ccc(/C=C/C(=O)c2ccccc2O)cc1OC

photoluminescence quantum yield (in C1CCOC1): 0.01 | photoluminescence quantum yield (in CS(C)=O): 0.01 | photoluminescence quantum yield (in ClC(Cl)Cl): 0.01 | photoluminescence quantum yield (in ClCCl): 0.04
Structure (SMILES): COc1ccc(-c2nc(-c3ccccc3O)c(-c3ccccc3O)n2-c2ccc(C)cc2)cc1

Structure (SMILES): COc1ccc(C2=[N+]3C(=Nc4c(-c5cc(OC)c(OC)c(OC)c5)c(-c5ccc(C(C)(C)C)cc5)c(-c5ccc(OC)cc5)n4[B-]3(F)F)C(c3cc(OC)c(OC)c(OC)c3)=C2c2ccc(C(C)(C)C)cc2)cc1
photoluminescence quantum yield (in Cc1ccccc1): 0.04

photoluminescence quantum yield (in ClCCl): 0.78
Structure (SMILES): N#Cc1ccc(-n2c(-c3ccc(-c4ccc(-n5c6ccccc6c6ccccc65)cc4)s3)nc3c4ccccc4c4ccccc4c32)c2ccccc12

photoluminescence quantum yield (in CO): 0.088
Structure (SMILES): CC1(C)C(/C=C/C2=C(c3ccc(C(=O)O)cc3)C(=C/C=C3/N(CCCS(=O)(=O)[O-])c4ccc5ccccc5c4C3(C)C)/CCC2)=[N+](CCCS(=O)(=O)[O-])c2ccc3ccccc3c21

Structure (SMILES): Cc1cc(-c2ccc(-n3c4ccccc4c4ccccc43)cc2)nc(-c2ccc(-n3c4ccccc4c4ccccc43)cc2)n1
photoluminescence quantum yield (in C1CCOC1): 0.59 | photoluminescence quantum yield (in CN(C)C=O): 0.63 | photoluminescence quantum yield (in Cc1ccccc1): 0.64 | photoluminescence quantum yield (in ClC(Cl)Cl): 0.61

Structure (SMILES): COc1ccccc1C1=C2C(C)=CC(C)=[N+]2[B-](F)(F)n2c(C)cc(C)c21
photoluminescence quantum yield (in C1CCOC1): 0.87 | photoluminescence quantum yield (in CC#N): 0.57 | photoluminescence quantum yield (in CC(=O)C(C)(C)C): 0.74 | photoluminescence quantum yield (in CC(C)=O): 0.78 | photoluminescence quantum yield (in CCCCCC): 0.98 | photoluminescence quantum yield (in CCOC(C)=O): 0.76 | photoluminescence quantum yield (in CO): 0.69

photoluminescence quantum yield (in CS(C)=O): 0.08
Structure (SMILES): C(/C=C/Nc1ccccc1)=[NH+]c1ccccc1
